# Assays:
# [1] = tested on: Ang II-induced expression of IL-6 and Collagen III in EA.hy926 cells; experiment: Ang II-induced expression of IL-6 and Collagen III in EA.hy926 cells, western blotting (Example 9); format: cell-based
# Method: EA.hy926 cells (passage 40) were seeded at a density of 1×10^6 cells/mL. After 24 hours, cells were incubated overnight in reduced serum media. Cells were then treated over 24 h as follows: • 1. Vehicle control • 2. Ang II (10 nM) • 3. […] Ang II (10 nM)+rhACE2 (0.05 ng/μL) • 5.
# Following incubation, cells were lysed using lysis buffer (Thermo Fisher Scientific, Cat #89900) containing 1% protease inhibitor (Thermo Fisher Scientific, Cat #1861278). Cell lysate was centrifuged at 13,000 rpm for 10 min. Protein concentration in the supernatant was determined by NanoDrop (Thermo Fisher Scientific, Cat #ND-1000). Supernatants were stored at −30° C. until analysed.
# Samples were diluted in SDS-PAGE reducing sample buffer (Bio-Rad Laboratories, Cat #1610747; California, USA) containing 1% β-mercaptoethanol (Bio-Rad Laboratories, Cat #221610710) to reach a final concentration of […]. Prior to loading, samples were heated at 95° C. for 5 min. Samples were loaded into the wells alongside the molecular weight marker (Life Technologies, Cat #LC5800; California, USA). Electrophoresis was conducted at 200 V for 40 min in 1× running buffer. Following protein separation by SDS-PAGE, proteins were blotted onto nitrocellulose membranes at 100 V for 1 h in 1× transfer buffer. The membranes were then blocked in 5% skim milk in 1× Tris-buffered saline (TBST) containing 0.05% Tween 20 (Thermo Fisher Scientific, Cat #28352) for 1 h at room temperature. The membranes were incubated with IL-6 (1:500; Thermo Fisher Scientific, Cat #700480) or collagen III (1:500; Invitrogen, Cat #PA5-27828) primary antibodies while rocking at 4° C. overnight. Membranes were then probed with secondary antibody conjugated with horseradish peroxidase (HRP) (1:6000) for 1 h at room temperature. The HRP-labelled proteins were detected using chemiluminescence SuperSignal™ ECL Western Blotting Substrate (Thermo Fisher Scientific, Cat #34577) at 1:1 ratio. Beta-actin was used as a loading control. Protein bands were analysed using ImageJ (version 1.51) and band density was normalised with the respective beta-actin.
# NEP [2] = target: T1, NEP (Homo sapiens, UniProt P08473); experiment: Cleavage of synthetic Aβ40 by NEP, LCMS (Example 7); format: biochemical; settings: peptide 9 μM
# T1 construct: purchased R & D systems 1182-ZNC-010
# T1 sequence (P08473 whole entry): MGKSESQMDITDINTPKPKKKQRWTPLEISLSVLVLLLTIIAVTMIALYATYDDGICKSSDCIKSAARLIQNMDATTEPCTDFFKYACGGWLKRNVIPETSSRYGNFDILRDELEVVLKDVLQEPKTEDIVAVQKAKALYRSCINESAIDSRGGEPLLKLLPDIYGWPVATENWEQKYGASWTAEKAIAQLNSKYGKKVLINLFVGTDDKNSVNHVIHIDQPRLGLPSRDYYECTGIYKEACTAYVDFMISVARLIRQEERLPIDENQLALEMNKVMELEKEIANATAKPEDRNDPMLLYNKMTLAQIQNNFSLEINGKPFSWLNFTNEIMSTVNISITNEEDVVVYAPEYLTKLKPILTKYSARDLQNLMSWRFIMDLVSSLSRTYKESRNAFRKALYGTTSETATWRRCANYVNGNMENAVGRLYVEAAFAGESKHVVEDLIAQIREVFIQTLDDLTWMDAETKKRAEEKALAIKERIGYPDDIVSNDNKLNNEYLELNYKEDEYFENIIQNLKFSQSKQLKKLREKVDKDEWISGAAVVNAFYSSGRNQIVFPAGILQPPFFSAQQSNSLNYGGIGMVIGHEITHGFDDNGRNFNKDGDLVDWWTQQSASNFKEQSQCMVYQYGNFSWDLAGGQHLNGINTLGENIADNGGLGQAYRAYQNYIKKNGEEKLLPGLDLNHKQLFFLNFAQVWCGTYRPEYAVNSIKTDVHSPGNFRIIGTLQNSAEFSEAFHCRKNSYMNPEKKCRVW
# Method: Synthetic Aβ40 (0.10 μg/μL) was added to a reaction mixture containing NEP (0.05 ng/μL) pre-incubated with SEQ ID NO:2 or scrambled control (9 μM) for 1 h at 37° C. Synthetic Aβ42 (0.05 μg/μL) was added to a reaction mixture containing NEP (0.15 ng/μL) preincubated with either scrambled control or SEQ ID NO:2 (9 μM) for 1 h at 37° C. Samples containing enzyme alone had only NEP buffer (Table 2). The cleavage reaction was allowed to continue in a thermomixer at 37° C. Aliquots of equal volume were taken over 24 h. Aliquots were immediately acidified with 0.1% trifluoroacetic acid (TFA) to terminate enzyme activity and snap frozen in dry ice. Samples were stored at −80° C. until analysed by LCMS.
# Samples were analysed by LC-MS/MS using a quadrupole TOF mass spectrometer (MicroTOFq, Bruker Daltonics, Bremen, Germany) coupled online with a 1200 series nano-HPLC (Agilent technologies, Santa Clara, CA, USA). Samples were injected onto a zorbax 300SB reversed phase trap column with 95% solvent A (0.1% formic acid) at a flow rate of 10 μL/minute. The peptides were eluted over a 10-min gradient to 70% solvent B (80% acetonitrile, 0.1% formic acid) and separated on a 15-cm, 75-μmID zorbax 300SB nanocolumn. The eluent was nebulised and ionised using the Bruker nano-ESI source with a capillary voltage of 4500 V, dry gas at 180° C., flow rate of 5 L/minute and nebuliser gas pressure at 300 mbar. The MS acquisition was in selected ion monitoring mode after selected ion extraction of the MS spectra. Prior to analysis, the qTOF mass spectrometer was calibrated using a 1:50 dilution tuning mix (Agilent technologies, Santa Clara, CA, USA). Data from MS run were processed in Skyline version 19.1.0.193 (Uni. Of Washington, WA, USA) to perform ion chromatogram extractions and peak integrations.
# NEP [3] = target: T1, NEP; experiment: QFS plate reader enzyme assay, peptide screen on NEP activity (Example 3); format: biochemical; settings: peptide 10 ng/μL, NEP 0.05 ng/μL, 1 h at 37° C.; compared to enzyme alone
# Method: (§1) Plate reader-based enzyme assays were performed using a quenched fluorescent substrate (QFS) in a 96-well format using a SpectraMAX M4 Microplate reader (Molecular Devices). The increase in fluorescence following addition of QFS (40 μM) was taken as evidence of enzyme activity. Fluorescence was monitored over 2 h at 37° C. using κEx=320 nm and λEm=405 nm. Assays were conducted in black 96-well plates. Specific enzyme activity was expressed as a rate of substrate cleavage calculated using a standard curve of 7-methoxy-coumarin-4-acetic acid.
# (§2) In all plate reader-based enzyme assays using QFS, the reaction rate (μmol of substrate cleaved/min) was calculated using linear regression analysis (GraphPad Prism software version 8.01). The reaction rates calculated were used to generate the enzyme kinetic parameters Vmax and Km through non-linear regression analysis (GraphPad Prism software, version 8.01; Michaelis-Menten equation). Where indicated, enzyme activity in the presence of peptide was expressed as a % of the enzyme alone. Data were expressed as mean±SEM and statistical significance was determined using t-tests or one-way ANOVAs followed by Tukey's post-hoc test. P<0.05 was considered as statistically significant. In all assays conducted using 96-well plates, the reaction mixtures in each well were considered an independent experiment.
# (§3) SEQ ID NOS: 1, 5 and 9-15 were screened for their effects on NEP and ECE1 using a high-throughput QFS assay using the method in Example 2 and the following procedure. NEP or ECE1 (0.05 ng/μL) was incubated with each peptide (10 ng/μL) for 1 h at 37° C.
# EA.hy926 cells = experiment: Peptide stability study in EA.hy926 endothelial cells, LCMS (Example 4); format: in vitro ADME; settings: peptide 9 μM, Opti-MEM
# Method: (§4) SEQ ID NO:2 was prepared as a C-terminal amidated analogue of SEQ ID NO:1. The stability of SEQ ID NO:1 and SEQ ID NO:2 was assessed in HEK293 and EA.hy926 cells grown in culture and their break down was monitored by LCMS over 60 min using the following procedure.
# (§5) HEK293 (passage 24) or Ea.hy926 (passage 37) were seeded into tissue-culture-grade 96-well plates at a density of 20,000 cells/well. After 24 hr, cells were washed with PBS and replaced with Opti-MEM reduced serum media containing SEQ ID NO:1 or SEQ ID NO:2 (9 μM). Aliquots of equal volume were taken at T=0 and 60 min. SEQ ID NO:2 was added to control wells having media (no cells) only. Samples were immediately acidified in 0.1% TFA, snap frozen in dry ice and stored in −80° C. until analysed by LCMS.
# (§6) Samples were analyzed by LC-MS/MS on a Shimadzu Nexera uHPLC (Japan) coupled to a Triple Tof 5600 mass spectrometer (ABSCIEX, Canada) equipped with a duo electrospray ion source. One μL of each extract was injected onto a 2.1 mm×100 mm Zorbax C18 1.8 um column (Agilent) at 200 μL/min. […] SEQ ID NO:1 and SEQ ID NO:2 were quantified using the […] doubly charged molecular ion from m/z 510.270 to 510.325. The data was acquired using Analyst TF 1.6 and quantification was carried out using MultiQuant 2.1.1 software (ABSCIEX, Canada).
# ECE1 [4] = target: T2, ECE1 (Homo sapiens, UniProt P42892); experiment: QFS plate reader enzyme assay, peptide screen on ECE1 activity (Example 3); format: biochemical; settings: peptide 10 ng/μL, ECE1 0.05 ng/μL, 1 h at 37° C.; compared to enzyme alone
# T2 construct: purchased R & D systems 1784-ZN-010
# T2 sequence (P42892 1-770): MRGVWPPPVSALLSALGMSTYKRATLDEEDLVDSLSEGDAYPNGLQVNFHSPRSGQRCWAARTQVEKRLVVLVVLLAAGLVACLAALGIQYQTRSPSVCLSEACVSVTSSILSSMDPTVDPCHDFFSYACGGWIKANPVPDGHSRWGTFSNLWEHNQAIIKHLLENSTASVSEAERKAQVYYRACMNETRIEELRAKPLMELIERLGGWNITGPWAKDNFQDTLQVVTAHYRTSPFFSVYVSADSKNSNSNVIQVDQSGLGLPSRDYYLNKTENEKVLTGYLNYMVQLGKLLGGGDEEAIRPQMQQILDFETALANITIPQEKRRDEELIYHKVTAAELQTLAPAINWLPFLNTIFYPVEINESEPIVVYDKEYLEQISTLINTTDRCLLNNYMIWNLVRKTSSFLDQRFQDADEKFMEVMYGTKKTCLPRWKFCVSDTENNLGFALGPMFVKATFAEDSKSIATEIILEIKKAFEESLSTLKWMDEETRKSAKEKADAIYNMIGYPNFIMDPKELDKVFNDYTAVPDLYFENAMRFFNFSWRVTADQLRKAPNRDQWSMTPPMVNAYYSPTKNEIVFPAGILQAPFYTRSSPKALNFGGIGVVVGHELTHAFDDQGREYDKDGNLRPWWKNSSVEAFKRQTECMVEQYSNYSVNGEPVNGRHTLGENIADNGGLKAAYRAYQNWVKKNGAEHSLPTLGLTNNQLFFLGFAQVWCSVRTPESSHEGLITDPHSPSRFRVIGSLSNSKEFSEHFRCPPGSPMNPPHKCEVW
# Method: as §1, §2, §3
# HEK293 cells = experiment: Peptide stability study in HEK293 cells, LCMS (Example 4); format: in vitro ADME; settings: peptide 9 μM, Opti-MEM, 60 min
# Method: as §4, §5, §6
# ECE1 [5] = target: T2, ECE1; settings: Smith A I et al., (2016) Scientific reports 6:22413; cited from earlier work
# NEP [6] = target: T1, NEP; settings: Smith A I et al., (2016) Scientific reports 6:22413; cited from earlier work
# [7] = Ang II 10 nM + peptide 26 μM + rhACE2 0.05 ng/μL + MLN-4760 10 μM
compound,measurement,setting,value
"CC(C)C[C@H](N[C@@H](Cc1cncn1Cc1cc(Cl)cc(Cl)c1)C(=O)O)C(=O)O [MLN-4760, reference compound]",Collagen III expression in the presence of ACE2 inhibitor MLN-4760,[1]; [7],75±14%
same,IL-6 expression in the presence of MLN-4760,[1]; [7],no difference
"Ang II: Angiotensin II, potent vasoconstrictor with fibrotic and inflammatory effects; stimulus in EA.hy926 cells (DRVYIHPF; Angiotensin-2; UniProt P01019 25-32, looked up) [reference compound]",Collagen III expression,"[1]; EA.hy926 cells, 24 h, Ang II 10 nM alone, or Ang II and 2A (26 μM)",141±30%
same,IL-6 expression,"[1]; EA.hy926 cells, Ang II 10 nM, 24 h, band density normalised with beta-actin",152±8%
"H-KILGILFMSE-OH [scrambled control, reference compound]",decrease in Aβ1-21 and increase in Aβ1-12,NEP [2]; Aβ40 cleavage,not observed
same,peak area corresponding to Aβ1-12 after 24 h,"NEP [2]; Aβ40 cleavage, 24 h",9.7×10^6±2.1×10^6 arbitrary units
same,amount of Aβ40 remaining after 4 h (peak area),"NEP [2]; NEP 0.05 ng/μL, Aβ40 0.10 μg/μL, 4 h",6.4×10^6±1.7×10^6 arbitrary units
"H-SLFELGKMIL-OH [SEQ ID NO:1, H2N-SLFELGKMIL-OH]",NEP activity,NEP [3],significant increase
same,relative amount remaining in the medium of endothelial cells at 60 min,EA.hy926 cells,23%±2.4%
same,ECE1 activity,ECE1 [4],no effect
same,amount remaining in the medium of HEK293 cells,HEK293 cells,29%±3%
H-SLFELGKMILQE-OH [SEQ ID NO:5],NEP activity,NEP [3],significant increase
same,ECE1 activity,ECE1 [4],no effect
H-SLFELGKMILQETG-OH [SEQ ID NO:12],NEP activity,NEP [3],significantly stimulate
same,ECE1 activity,ECE1 [4],significantly stimulate
H-SLFELGKMILQETGKN-OH [SEQ ID NO:11],NEP activity,NEP [3],significantly stimulate
same,ECE1 activity,ECE1 [4],significantly stimulate
H-SLFELGKMILQETGKNPAKS-OH [SEQ ID NO:9],NEP activity,NEP [3],significantly stimulate
same,ECE1 activity,ECE1 [4],significantly stimulate
same,ECE1 activity (previous studies),ECE1 [5],directly increase the activity
same,NEP activity (previous studies),NEP [6],directly increase the activity
rhACE2: Recombinant human ACE2 (Cat #933-ZN-010) purchased from R & D systems,Collagen III expression compared to cells treated with Ang II alone,"[1]; Ang II 10 nM plus 2A 26 μM and/or ACE2 0.05 ng/μL, 24 h",significantly lower
same,IL-6 expression compared to cells treated with Ang II alone,"[1]; Ang II 10 nM plus peptide 26 μM and/or rhACE2 0.05 ng/μL, 24 h",significantly lower

# Reference: patent US20240002441A1, “PEPTIDES AND USES THEREOF IN MODULATION OF AMYLOID-BETA PROTEIN DEGRADING PROTEASES” (priority 2020, published 2024)
